From ChEMBL document CHEMBL5442219 come the findings set out here.

Settings in all cases: Compound concentration 10 µM
Assay [1] has as its target T1, Alpha-2C adrenergic receptor (Homo sapiens) (UniProt P18825).
T1 sequence (whole entry): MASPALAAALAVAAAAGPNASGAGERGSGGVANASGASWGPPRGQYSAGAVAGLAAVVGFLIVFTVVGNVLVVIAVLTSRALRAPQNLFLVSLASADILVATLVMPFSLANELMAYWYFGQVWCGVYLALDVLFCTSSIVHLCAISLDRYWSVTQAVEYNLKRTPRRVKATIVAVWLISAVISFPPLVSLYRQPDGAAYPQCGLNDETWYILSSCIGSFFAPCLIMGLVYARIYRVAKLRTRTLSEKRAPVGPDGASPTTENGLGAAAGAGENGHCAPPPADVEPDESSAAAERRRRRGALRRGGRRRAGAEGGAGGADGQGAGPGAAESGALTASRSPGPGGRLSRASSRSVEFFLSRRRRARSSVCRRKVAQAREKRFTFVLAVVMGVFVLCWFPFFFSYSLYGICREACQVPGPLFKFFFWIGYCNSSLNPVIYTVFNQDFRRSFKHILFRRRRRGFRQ

The target of assay [2] is Beta-2 adrenergic receptor (Homo sapiens) (UniProt P07550).
Chain of Beta-2 adrenergic receptor (Homo sapiens) (P07550 whole entry, looked up): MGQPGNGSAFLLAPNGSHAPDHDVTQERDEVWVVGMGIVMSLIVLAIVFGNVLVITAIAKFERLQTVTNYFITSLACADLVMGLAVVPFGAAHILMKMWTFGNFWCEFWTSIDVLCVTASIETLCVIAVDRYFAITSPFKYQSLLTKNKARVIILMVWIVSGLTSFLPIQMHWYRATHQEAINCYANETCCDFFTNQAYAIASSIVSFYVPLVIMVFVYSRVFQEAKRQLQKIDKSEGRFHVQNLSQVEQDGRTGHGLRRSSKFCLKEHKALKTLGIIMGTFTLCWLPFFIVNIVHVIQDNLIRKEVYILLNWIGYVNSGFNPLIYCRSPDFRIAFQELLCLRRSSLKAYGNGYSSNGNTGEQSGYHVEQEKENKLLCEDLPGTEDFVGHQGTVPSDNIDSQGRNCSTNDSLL
Assay [3] deals with D(3) dopamine receptor (Homo sapiens) (UniProt P35462).
Chain of D(3) dopamine receptor (Homo sapiens) (P35462 whole entry): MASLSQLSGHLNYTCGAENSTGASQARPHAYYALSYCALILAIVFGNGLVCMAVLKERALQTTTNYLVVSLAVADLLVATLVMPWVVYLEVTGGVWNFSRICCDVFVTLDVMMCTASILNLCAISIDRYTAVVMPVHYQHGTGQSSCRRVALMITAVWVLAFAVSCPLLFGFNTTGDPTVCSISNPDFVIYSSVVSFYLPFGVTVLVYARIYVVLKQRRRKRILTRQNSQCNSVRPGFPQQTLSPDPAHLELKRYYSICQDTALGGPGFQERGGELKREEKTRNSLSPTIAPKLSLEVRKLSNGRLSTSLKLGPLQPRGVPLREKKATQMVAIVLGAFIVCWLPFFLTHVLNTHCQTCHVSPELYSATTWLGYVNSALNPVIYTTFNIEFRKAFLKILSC
Assay [4] concerns the target T2, D(4) dopamine receptor (Homo sapiens) (UniProt P21917).
T2 sequence (whole entry): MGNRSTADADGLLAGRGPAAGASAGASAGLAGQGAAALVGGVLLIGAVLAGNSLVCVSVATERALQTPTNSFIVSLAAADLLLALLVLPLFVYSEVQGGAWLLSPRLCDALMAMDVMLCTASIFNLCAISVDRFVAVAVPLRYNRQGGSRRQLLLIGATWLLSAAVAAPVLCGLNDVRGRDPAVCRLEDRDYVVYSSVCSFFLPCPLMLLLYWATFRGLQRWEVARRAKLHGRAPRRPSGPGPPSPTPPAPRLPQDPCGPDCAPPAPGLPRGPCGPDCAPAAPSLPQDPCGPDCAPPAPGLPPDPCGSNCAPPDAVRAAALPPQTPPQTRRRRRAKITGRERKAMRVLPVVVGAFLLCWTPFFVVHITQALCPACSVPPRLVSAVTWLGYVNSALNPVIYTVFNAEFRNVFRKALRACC

Assay [5] addresses Histamine H1 receptor (Homo sapiens) (UniProt P35367).
Assay [6] has as its target Histamine H4 receptor (Homo sapiens) (UniProt Q9H3N8).
The target of assay [7] is 5-hydroxytryptamine receptor 1E (Homo sapiens) (UniProt P28566).
Chain of 5-hydroxytryptamine receptor 1E (Homo sapiens) (P28566 whole entry): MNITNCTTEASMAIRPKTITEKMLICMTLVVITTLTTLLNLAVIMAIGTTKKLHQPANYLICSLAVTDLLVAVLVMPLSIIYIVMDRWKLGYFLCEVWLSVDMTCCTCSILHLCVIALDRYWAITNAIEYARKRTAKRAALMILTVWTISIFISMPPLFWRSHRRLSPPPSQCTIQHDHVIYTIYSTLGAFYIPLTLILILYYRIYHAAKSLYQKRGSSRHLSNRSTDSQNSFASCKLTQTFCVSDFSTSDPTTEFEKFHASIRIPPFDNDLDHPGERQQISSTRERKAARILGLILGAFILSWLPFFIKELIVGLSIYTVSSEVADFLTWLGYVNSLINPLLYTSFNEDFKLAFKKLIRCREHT
Assay [8] addresses 5-hydroxytryptamine receptor 2A (Homo sapiens) (UniProt P28223).
Assay [9] addresses 5-hydroxytryptamine receptor 2B (Homo sapiens) (UniProt P41595).
Assay [10] has as its target T3, 5-hydroxytryptamine receptor 2C (Homo sapiens) (UniProt P28335).
T3 sequence (whole entry): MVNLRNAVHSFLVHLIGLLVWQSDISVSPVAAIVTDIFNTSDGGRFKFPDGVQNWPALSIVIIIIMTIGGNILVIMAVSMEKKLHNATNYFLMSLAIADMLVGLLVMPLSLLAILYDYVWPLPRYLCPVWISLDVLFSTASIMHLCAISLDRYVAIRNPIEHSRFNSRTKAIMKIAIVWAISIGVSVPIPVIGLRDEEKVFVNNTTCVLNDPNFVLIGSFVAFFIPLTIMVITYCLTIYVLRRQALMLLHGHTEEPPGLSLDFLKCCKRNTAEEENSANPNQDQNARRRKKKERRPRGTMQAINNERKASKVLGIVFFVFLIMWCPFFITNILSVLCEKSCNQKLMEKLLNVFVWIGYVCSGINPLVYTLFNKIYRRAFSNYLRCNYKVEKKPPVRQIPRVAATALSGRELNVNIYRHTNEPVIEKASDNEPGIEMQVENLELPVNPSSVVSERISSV

Assay [11] has as its target T4, 5-hydroxytryptamine receptor 3A (Homo sapiens) (UniProt P46098).
T4 sequence (whole entry): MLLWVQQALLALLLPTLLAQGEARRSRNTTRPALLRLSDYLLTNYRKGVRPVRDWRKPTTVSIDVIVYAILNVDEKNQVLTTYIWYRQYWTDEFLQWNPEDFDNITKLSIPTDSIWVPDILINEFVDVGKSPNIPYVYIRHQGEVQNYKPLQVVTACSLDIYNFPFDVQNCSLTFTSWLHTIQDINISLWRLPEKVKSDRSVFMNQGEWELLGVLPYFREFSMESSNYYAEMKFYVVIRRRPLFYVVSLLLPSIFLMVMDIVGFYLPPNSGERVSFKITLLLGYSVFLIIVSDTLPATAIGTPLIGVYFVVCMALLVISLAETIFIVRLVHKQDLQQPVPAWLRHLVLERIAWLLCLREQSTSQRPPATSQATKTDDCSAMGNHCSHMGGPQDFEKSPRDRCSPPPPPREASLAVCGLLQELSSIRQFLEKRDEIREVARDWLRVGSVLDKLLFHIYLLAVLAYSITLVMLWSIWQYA

For assay [12], the target named is 5-hydroxytryptamine receptor 5A (Homo sapiens) (UniProt P47898).
Chain of 5-hydroxytryptamine receptor 5A (Homo sapiens) (P47898 whole entry): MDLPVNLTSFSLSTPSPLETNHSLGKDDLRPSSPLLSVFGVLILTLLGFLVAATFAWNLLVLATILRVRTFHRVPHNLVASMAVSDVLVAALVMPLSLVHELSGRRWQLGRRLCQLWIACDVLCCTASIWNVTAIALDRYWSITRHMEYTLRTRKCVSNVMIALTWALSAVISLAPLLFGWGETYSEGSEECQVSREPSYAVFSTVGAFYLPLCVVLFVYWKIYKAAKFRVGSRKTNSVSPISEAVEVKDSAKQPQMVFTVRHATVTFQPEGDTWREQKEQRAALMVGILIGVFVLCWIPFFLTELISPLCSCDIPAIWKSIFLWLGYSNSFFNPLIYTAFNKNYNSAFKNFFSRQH
For assay [13], the target named is Kappa-type opioid receptor (Homo sapiens) (UniProt P41145).
Chain of Kappa-type opioid receptor (Homo sapiens) (P41145 whole entry): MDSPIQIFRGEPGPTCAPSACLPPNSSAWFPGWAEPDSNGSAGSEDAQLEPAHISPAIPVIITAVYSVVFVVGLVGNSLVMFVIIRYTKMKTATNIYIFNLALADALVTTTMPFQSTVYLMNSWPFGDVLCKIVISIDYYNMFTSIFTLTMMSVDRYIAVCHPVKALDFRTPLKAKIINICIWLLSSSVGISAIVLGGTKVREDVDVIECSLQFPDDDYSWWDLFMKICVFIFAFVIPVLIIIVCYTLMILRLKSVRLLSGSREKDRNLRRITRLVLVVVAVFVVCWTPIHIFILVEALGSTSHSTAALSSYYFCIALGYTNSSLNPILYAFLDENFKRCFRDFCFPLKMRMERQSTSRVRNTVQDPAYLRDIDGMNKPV
Assay [14] addresses Sigma intracellular receptor 2 (Homo sapiens) (UniProt Q5BJF2).
Assay [15] addresses Translocator protein (Homo sapiens) (UniProt P30536).
Assay [16] concerns the target T5, 5-hydroxytryptamine receptor 1A (Homo sapiens) (UniProt P08908).
T5 sequence (whole entry): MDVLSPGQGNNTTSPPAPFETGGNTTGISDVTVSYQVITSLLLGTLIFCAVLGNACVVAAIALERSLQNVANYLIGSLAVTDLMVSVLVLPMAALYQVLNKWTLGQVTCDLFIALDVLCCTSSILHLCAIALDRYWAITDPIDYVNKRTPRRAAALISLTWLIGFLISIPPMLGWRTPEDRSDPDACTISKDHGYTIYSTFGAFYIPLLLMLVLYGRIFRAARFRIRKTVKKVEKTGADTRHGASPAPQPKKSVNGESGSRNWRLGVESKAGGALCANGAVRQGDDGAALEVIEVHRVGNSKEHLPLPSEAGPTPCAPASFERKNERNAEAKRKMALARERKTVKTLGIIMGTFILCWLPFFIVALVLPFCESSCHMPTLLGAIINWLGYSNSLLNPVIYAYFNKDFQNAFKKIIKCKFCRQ

Chain of Translocator protein (Homo sapiens) (P30536 whole entry): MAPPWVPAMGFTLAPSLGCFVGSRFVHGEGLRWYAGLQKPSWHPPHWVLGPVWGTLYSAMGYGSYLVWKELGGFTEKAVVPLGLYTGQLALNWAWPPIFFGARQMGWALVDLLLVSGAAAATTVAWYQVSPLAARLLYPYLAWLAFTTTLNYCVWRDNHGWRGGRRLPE
Chain of Histamine H4 receptor (Homo sapiens) (Q9H3N8 whole entry): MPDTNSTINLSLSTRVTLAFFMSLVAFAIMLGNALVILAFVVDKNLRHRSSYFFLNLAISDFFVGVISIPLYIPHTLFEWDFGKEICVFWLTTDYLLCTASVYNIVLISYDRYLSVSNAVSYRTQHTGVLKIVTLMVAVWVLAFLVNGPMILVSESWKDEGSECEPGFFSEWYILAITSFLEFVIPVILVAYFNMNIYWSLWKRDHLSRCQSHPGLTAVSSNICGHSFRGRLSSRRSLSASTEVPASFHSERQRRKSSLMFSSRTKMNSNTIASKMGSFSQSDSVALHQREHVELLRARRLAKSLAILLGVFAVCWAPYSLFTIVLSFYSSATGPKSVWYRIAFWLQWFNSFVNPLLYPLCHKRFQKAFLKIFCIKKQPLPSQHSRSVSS
Chain of Histamine H1 receptor (Homo sapiens) (P35367 whole entry): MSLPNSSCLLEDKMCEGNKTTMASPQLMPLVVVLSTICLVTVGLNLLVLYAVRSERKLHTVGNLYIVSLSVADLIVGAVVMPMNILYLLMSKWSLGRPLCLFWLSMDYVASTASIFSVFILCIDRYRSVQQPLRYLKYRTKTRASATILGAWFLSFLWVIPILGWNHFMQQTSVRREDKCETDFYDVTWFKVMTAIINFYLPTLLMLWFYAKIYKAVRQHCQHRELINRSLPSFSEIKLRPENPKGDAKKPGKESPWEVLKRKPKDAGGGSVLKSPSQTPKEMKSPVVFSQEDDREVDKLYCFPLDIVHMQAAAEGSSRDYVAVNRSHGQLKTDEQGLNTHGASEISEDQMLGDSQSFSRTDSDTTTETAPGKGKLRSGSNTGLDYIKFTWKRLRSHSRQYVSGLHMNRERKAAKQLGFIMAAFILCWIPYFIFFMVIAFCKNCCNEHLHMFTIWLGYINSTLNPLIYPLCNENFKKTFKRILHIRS
Chain of 5-hydroxytryptamine receptor 2A (Homo sapiens) (P28223 whole entry): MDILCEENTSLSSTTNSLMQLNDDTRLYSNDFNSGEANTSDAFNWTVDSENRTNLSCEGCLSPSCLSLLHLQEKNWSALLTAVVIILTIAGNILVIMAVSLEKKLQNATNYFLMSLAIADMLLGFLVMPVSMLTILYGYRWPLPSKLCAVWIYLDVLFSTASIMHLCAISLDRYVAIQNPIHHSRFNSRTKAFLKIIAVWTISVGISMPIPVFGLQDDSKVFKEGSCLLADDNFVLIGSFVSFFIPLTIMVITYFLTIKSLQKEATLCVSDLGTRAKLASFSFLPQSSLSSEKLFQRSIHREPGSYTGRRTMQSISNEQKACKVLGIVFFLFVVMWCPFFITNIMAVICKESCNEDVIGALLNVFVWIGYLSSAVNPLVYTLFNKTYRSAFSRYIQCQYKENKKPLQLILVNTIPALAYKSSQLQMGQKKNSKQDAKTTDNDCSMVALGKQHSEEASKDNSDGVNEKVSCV
Chain of Sigma intracellular receptor 2 (Homo sapiens) (Q5BJF2 whole entry): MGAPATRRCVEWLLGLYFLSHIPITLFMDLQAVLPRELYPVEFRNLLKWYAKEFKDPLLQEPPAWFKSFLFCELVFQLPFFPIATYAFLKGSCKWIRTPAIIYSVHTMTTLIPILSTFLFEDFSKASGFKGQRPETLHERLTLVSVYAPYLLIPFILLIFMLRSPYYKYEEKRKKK
Chain of 5-hydroxytryptamine receptor 2B (Homo sapiens) (P41595 whole entry): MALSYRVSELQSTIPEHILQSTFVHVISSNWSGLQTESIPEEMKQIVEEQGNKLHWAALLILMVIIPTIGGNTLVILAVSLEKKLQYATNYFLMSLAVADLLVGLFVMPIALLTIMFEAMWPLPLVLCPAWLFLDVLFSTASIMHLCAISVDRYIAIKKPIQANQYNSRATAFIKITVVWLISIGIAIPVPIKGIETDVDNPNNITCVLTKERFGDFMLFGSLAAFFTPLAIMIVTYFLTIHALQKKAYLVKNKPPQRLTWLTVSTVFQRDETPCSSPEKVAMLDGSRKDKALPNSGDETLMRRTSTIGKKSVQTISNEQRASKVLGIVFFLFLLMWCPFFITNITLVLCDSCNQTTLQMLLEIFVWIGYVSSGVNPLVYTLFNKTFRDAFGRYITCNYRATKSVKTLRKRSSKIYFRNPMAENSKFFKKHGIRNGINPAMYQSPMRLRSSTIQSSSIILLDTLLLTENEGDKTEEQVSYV

Usually inhibition stands for the drop in the measured response relative to a control, in per cent. In the case of `C[N+]1(C)[C@@H]2C[C@@H](OC(=O)C(O)(c3cccs3)c3cccs3)C[C@H]1[C@@H]1O[C@@H]12`, the inhibition was -0.27% in assay [1]; 16.1% in assay [2]; 24% in [3]; 20% in [4]; 92.1% in [5]; -8.1% in assay [6]. For the same compound, the inhibition in [7] is 11.2%; in assay [8], -4.76%; in assay [9] it was 11.5%; in [10], -6.52%; in [11], 14.3%; in assay [12] it was 2.25%. Also, the values for the inhibition in assay [13], in [14] and in assay [15] were -0.32%, 66.5% and 66.3%, respectively.

For `CC(C)[C@H](CO)Nc1nc(Nc2cccc(Cl)c2)c2ncn(C(C)C)c2n1`, the inhibition was 28.4% in [1]; -7.15% in assay [2]; 22.4% in assay [3]; 62.7% in [4]; -4.77% in [5]; 11.2% in assay [6]. The inhibition in assay [16] was 5.71%; in assay [8], 41.8%; in [9], 96.2%; in [10] it was 51%; in assay [11] it was 25.4%; in [12], 60.9%. The inhibition in assay [13] was 34.6%; in [14], 63.1%; in assay [15], 76.5%.

Regarding `CN1CCC(C(=O)c2cccc(NC(=O)c3c(F)cc(F)cc3F)n2)CC1`, the inhibition in [1] was 6.36%; in [2], -3.08%; in [4], 14%; in assay [5], 16.4%; in assay [6], -0.15%; in [16], 4.22%. The inhibition in assay [7] is 102%; in [8] it was 1.42%; in assay [9] it was 60.6%; in [10] it was 6.11%; in assay [11], 20.9%; in [12] it was 27.2%. The inhibition in assay [13] was 69.2%; in assay [14] it was 91%.

On to `CN[C@@H]1CCc2[nH]c3ccc(C(N)=O)cc3c2C1`, for which the inhibition was 22.7% in assay [2]; 47.6% in [3]; 64.7% in [4]; 0.33% in assay [5]; 2.79% in assay [6]; 56.4% in assay [16]. For the same compound, the inhibition was 79.1% in assay [7]; 16.6% in assay [8]; 6.12% in [9]; 18.2% in [10]; 24.7% in assay [11]; 9.03% in assay [12]. Moreover, the inhibition in assay [13] is 5.76%; in assay [14] it was 54.9%; in [15], -4.51%.

For the compound `Cc1ccccc1N1CCN(S(=O)(=O)C[C@]23CC[C@H](C[C@@H]2NC(=O)[C@@H](N)CCS(C)(=O)=O)C3(C)C)CC1`, the inhibition is 14.7% in assay [1]; 13.7% in assay [2]; -6.27% in assay [4]; 0.34% in assay [5]; -3.44% in assay [6]; 19.7% in [7]. In addition, the inhibition was 1.52% in assay [8]; 31.7% in assay [9]; -4.87% in assay [10]; -6.48% in assay [11]; -3.77% in assay [12]; 98.5% in [13]. For the same compound, the inhibition was 85% in assay [14] and -1.05% in assay [15].

Consider `N#Cc1c[nH]c2c(C(=O)N3CCN(CCc4ccc(F)cc4)CC3)cccc12`, for which the inhibition in assay [1] was 38.2%; in assay [2] it was 60.9%; in assay [3], 10.4%; in assay [4], 81.9%; in assay [5], 46.1%; in assay [6], -2.67%. In addition, the inhibition is 21.2% in assay [16]; 27.3% in assay [7]; 100% in assay [8]; 57.1% in assay [9]; 58.7% in assay [10]; -8.41% in [11]. The inhibition in assay [12] was 12.6%; in assay [13], 7.51%; in assay [14] it was 68.2%.

As to `N[C@H](C(=O)O)c1ccc(C(=O)O)c(C(=O)O)c1`, the inhibition in assay [1] was -9.35%; in assay [2], 6.53%; in assay [3], 62.5%; in assay [4], -8.24%; in [5], 11.7%; in assay [6] it was 15%. Besides, the inhibition in [16] was 8.99%; in assay [7] it was -8.66%; in assay [8], 5.29%; in [10] it was 13.4%; in assay [11], 1.09%; in assay [12] it was -7.78%. Moreover, the inhibition was 4.93% in assay [13] and 13.8% in assay [15].

As for `CCc1nn2c(C)cc(C)nc2c1Cc1ccc(-c2nnc(C3CCNCC3)o2)cc1`, the inhibition in assay [1] is 31.1%; in assay [2] it was 12.5%; in [3], -9.36%; in assay [4], -4.88%; in assay [5], 9.84%; in assay [6], -1.79%. The inhibition was -1.59% in assay [16]; 12.6% in assay [7]; -2.43% in assay [8]; 9.86% in assay [9]; 10.1% in assay [10]; 93.4% in assay [11]. For the same compound, the inhibition in assay [12] was 3.02%; in assay [13] it was 4.27%; in assay [14], 80.3%.
